According to patent US20250376498A1, “FUSION PROTEINS COMPRISING AN IMPROVED GLP-1 RECEPTOR AGONIST AND USES THEREOF” (Guangzhou Innogen Pharmaceutical Group Co., Ltd., priority 2022, published 2025):
Read-outs that look alike come from different tables or passages of the source.

Assays:
[1] = cited from earlier work
db/db mice = experiment: Multiple subcutaneous injections in db/db mice (type 2 diabetes model); type: in vivo; conditions: db/db mice
Protocol: The impact of multiple subcutaneous injections of YN-011 on reducing blood glucose levels was evaluated in db/db mice (Jackson Laboratories, 000642). The mice were kept under normal lighting conditions (12 hours light/12 hours dark) and at room temperature, with free access to food (normal rodent chow) and water. Db/db mice lack leptin receptors and spontaneously develop obesity, hyperglycemia, and pancreatic B-cell atrophy by 4 weeks of age.
Sixty affected db/db mice (33-45g) were divided into six groups of 10 mice each (5 males and 5 females) and administered 0 (PBS buffer control), 0.15, 0.3, 0.6, or 1.2 mg/kg of YN-011, or 0.3 mg/kg of Degludec via subcutaneous injection. Another group of wild-type mice (17-22g) with the same genetic background served as the normal control. The administration frequency was once every 3 days (Q3D), with a total of 9 doses administered over a period of 26 days. […] The duration of the hypoglycemic effect ranged from 34 to 72 hours within the dose range of 0.15-1.2 mg/kg.

[2] = Determination of oxidation levels by LC-MS/MS; type: physicochemical
Protocol: Following the protein oxidation measurement method described in Example 2 or by referring to Bettinger et al., the oxidation levels were determined. It was observed that the GLP-1 fusion protein YN-011 of the present invention was not oxidized at position W31, whereas the oxidation level of […] at the same position exceeded 5%. The oxidation occurred at the location indicated by the rectangular box in the structure of W31.

[3] = cited from earlier work; remark: listed apart in the source
[4] = marketed drugs, refs [22], [24]; cited from earlier work
[5] = dulaglutide 1.5 mg in combination with metformin, 40 weeks (Dungan et al.)
[6] = dulaglutide 1.5 mg, 26 weeks (Shi et al.)
[7] = semaglutide 1 mg, 30 weeks (Sorli et al.)

## CCCCCCCCCCCCCCCC(=O)N[C@@H](CCC(=O)NCCCC[C@H](NC(=O)[C@H](C)NC(=O)[C@H](C)NC(=O)[C@H](CCC(N)=O)NC(=O)CNC(=O)[C@H](CCC(=O)O)NC(=O)[C@H](CC(C)C)NC(=O)[C@H](Cc1ccc(O)cc1)NC(=O)[C@H](CO)NC(=O)[C@H](CO)NC(=O)[C@@H](NC(=O)[C@H](CC(=O)O)NC(=O)[C@H](CO)NC(=O)[C@@H](NC(=O)[C@H](Cc1ccccc1)NC(=O)[C@@H](NC(=O)CNC(=O)[C@H](CCC(=O)O)NC(=O)[C@H](C)NC(=O)[C@@H](N)Cc1cnc[nH]1)[C@@H](C)O)[C@@H](C)O)C(C)C)C(=O)N[C@@H](CCC(=O)O)C(=O)N[C@@H](Cc1ccccc1)C(=O)N[C@H](C(=O)N[C@@H](C)C(=O)N[C@@H](Cc1c[nH]c2ccccc12)C(=O)N[C@@H](CC(C)C)C(=O)N[C@H](C(=O)N[C@@H](CCCNC(=N)N)C(=O)NCC(=O)N[C@@H](CCCNC(=N)N)C(=O)NCC(=O)O)C(C)C)[C@@H](C)CC)C(=O)O [liraglutide]
[1]; liraglutide 1 mg, 24 weeks (Shuai et al.)
  incidence of nausea: 5.6%
[1]; liraglutide 3 mg, 24 weeks (Shuai et al.)
  incidence of nausea: 10%

## Degludec [reference compound]
db/db mice; 0.3 mg/kg Q3D sc, average over measurement time points
  average rate of fasting blood glucose reduction: 63.6%
db/db mice; Q3D sc, YN-011 all dose groups (P<0.001), Degludec 0.3 mg/kg
  fasting blood glucose levels versus model control group: significant decrease
[2]
  oxidation level at position M253: exceeding 5%
  oxidation level at position W31: exceeded 5%

## Dulaglutide: DPP-IV protected GLP-1 analog fused with an IgG4/Fc fragment
[3]; [5]
  incidence of hypoglycemia: 9%
  incidence of nausea: 20%
  reduction in FPG levels: 1.93%
  reduction in HbA1c levels: 1.42%
[4]
  half-life / elimination half-life: 113 to 132 h
[1]; dulaglutide 0.75 mg, 26 weeks (Shi et al.)
  incidence of hypoglycemia: 4.1%
[1]; [6]
  incidence of hypoglycemia: 6.3%
  incidence of nausea: 9.5%
  reduction in HbA1c levels: 1.46%

## Semaglutide
[3]; semaglutide 1 mg in combination with metformin, 30 weeks (Ji et al.)
  incidence of nausea: 13.4%
[4]
  half-life / elimination half-life: 137 to 161 h
[1]; semaglutide 0.5 mg, 30 weeks (Sorli et al.)
  incidence of nausea: 20%
[1]; [7]
  incidence of nausea: 24%
  reduction in HbA1c levels: 1.55%
